Results as given in patent publication US20130177994A1, “METHODS FOR QU[…] DETERMINATION OF THE d- AND l- ENANTIOMERS OF AMPHETAMINE AND METHAMPHETAMINE” (CLINICAL REFERENCE LABORATORY, INC., priority 2012, published 2013).

Test: Donor sample analysis by chiral LC/MS/MS (oral fluid)
Type: in vivo
Text: HPLC conditions were adapted from a separation method posted on the manufacturer's website (Sigma-Aldrich) using UV detection. A Supelco Astec Chirobiotic® V2 chiral column (5 μm particle size, 2.1×250 mm) from Sigma-Aldrich was used to achieve the chiral separation of the enantiomers for amphetamine and methamphetamine. The Chirobiotic® V2 column employs vancomycin as the chiral stationary phase to induce separation. The mobile phase consisted of 99.89:0.1:0.01 methanol:acetic acid:ammonium hydroxide (v/v/v) with a flow rate of 0.5 mL/min. The column temperature was 30° C. The HPLC employed was a Shimadzu Nexera UPLC system (Kyoto, Japan) operating at typical HPLC pressures. The injection volume for the method was 5 μL.
Detection was performed by an API 4000 triple-quadrupole mass spectrometer from AB Sciex (Foster City, Calif., USA). Column eluent was introduced into the mass spectrometer using the Turbolonspray® source operating in the positive ionization mode. Multiple-reaction monitoring (MRM) was used to analyze and detect each compound with a high degree of selectivity. The ionspray voltage was set at 5000V and the source temperature was 550° C. Parameters such as declustering potential (DP), collision energy (CE) and entrance and exit potentials (EP and CXP) were optimized for each analyte. The total analysis time for the method is 10 minutes.
Sample extraction was accomplished by aliquoting 200 μL of oral fluid sample into a 16×75 mm culture tube and adding 50 μL of internal standard (200 ng/mL racemic D11-amphetamine and […]). The sample was then treated with 25 μL of 10% sodium periodate solution and allowed to sit for 30 minutes after mixing. A 500 μL aliquot of 0.1 M phosphoric acid was added to each sample and mixed prior to transfer to the SPE wells.
The Agilent SPEC-DAU 96-well SPE plate was conditioned with 1 mL of methanol followed by 0.5 mL of 0.1 M phosphoric acid. Nitrogen gas was used to apply positive pressure for all SPE steps to induce a flow rate of about 1 to 2 mL per minute. […]
Several donor samples have been analyzed by this method. […]

SMILES	% d-methamphetamine in samples containing methamphetamine (all donor samples containing methamphetamine) [%]	% d-amphetamine in samples containing amphetamine (9 out of 25 donor samples, consistent with Adderall use)	% d-amphetamine in samples containing amphetamine (the remaining donor samples) [%]
CN[C@@H](C)Cc1ccccc1 [d-Methamphetamine, d-methamphetamine]	> 90		
C[C@H](N)Cc1ccccc1 [d-Amphetamine, d-amphetamine]		approximately 70%	100
